One test deals with Cholinesterase (Homo sapiens, UniProt P06276). In words: Inhibition of human serum BuChE using butyrylthiocholine iodide as substrate preincubated with enzyme for 10 mins followed by substrate addition and measured by Ellman's method. It counts as cell-free.
Test [1] has as its target T1, Acetylcholinesterase (Homo sapiens, UniProt P22303).
Description: Inhibition of human recombinant AChE using acetylthiocholine iodide as substrate preincubated with enzyme for 10 mins followed by substrate addition and measured by Ellman's method
Test [2] concerns the target T1, Acetylcholinesterase. Briefly: Potency index, ratio of rivastigmine IC50 to test compound IC50 for human recombinant AChE using acetylthiocholine iodide as substrate preincubated with enzyme for 10 mins followed by substrate addition and measured by Ellman's method. For orientation: In Ellman's method for cholinesterases, released thiocholine reacts with DTNB.

In general, IC50 refers to the midpoint of a concentration-inhibition curve. A low value points to greater potency in that assay. As a reminder, the Ki is the dissociation constant of the complex between target and ligand, obtained from inhibition or displacement.

Sequence of Cholinesterase (P06276 whole entry): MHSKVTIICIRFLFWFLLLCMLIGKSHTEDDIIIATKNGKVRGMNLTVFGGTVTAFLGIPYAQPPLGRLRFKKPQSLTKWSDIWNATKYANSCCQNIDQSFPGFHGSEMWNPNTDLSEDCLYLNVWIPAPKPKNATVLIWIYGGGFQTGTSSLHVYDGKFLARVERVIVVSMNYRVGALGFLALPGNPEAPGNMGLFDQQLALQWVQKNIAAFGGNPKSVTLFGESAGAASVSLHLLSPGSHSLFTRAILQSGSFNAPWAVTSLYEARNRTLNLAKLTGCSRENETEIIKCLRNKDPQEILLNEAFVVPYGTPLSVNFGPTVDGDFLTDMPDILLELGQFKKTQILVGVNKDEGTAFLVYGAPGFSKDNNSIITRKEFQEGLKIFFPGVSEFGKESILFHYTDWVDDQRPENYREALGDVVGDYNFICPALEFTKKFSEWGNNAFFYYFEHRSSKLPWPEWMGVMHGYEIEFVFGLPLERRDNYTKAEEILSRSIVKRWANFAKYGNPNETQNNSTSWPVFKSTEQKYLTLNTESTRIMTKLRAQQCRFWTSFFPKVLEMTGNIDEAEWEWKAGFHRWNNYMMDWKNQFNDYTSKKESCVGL
T1 sequence (P22303 whole entry): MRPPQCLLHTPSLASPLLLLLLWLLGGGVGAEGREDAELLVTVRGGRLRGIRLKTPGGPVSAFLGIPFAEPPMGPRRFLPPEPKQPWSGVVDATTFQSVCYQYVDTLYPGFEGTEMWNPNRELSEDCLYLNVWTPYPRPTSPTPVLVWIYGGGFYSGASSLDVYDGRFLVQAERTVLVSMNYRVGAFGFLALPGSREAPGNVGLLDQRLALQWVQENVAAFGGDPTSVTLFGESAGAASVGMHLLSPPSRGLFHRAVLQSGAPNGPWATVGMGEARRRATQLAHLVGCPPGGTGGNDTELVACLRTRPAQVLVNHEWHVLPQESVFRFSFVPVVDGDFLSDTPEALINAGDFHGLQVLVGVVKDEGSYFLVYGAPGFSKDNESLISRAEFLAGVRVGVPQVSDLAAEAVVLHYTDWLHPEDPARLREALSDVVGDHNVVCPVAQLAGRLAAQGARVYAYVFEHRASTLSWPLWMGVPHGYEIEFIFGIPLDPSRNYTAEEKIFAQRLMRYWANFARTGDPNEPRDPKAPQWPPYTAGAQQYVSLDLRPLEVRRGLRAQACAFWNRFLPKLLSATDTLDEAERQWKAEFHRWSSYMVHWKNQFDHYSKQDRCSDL

With `Cc1ccc(S(=O)(=O)SCc2ccc(C#N)cc2)cc1`, the IC50 came out at 203 nM against Cholinesterase and 196 nM on Acetylcholinesterase [1]. The inhibition constant Ki came to 201 nM on Cholinesterase and 166 nM on Acetylcholinesterase [1].

Regarding `Cc1ccc(S(=O)(=O)SCc2ccc(C(F)(F)F)cc2)cc1`, on Cholinesterase, 118 nM corresponded to half-maximal inhibition (IC50) and the Ki is 103 nM. For the same molecule, on Acetylcholinesterase [1], the concentration for half-maximal inhibition (IC50) came to 86.6 nM and affinity was put at a Ki of 148 nM.

On to `Cc1ccc(S(=O)(=O)SCc2ccc(F)cc2)cc1`, for which the figures for the IC50 against Cholinesterase and on Acetylcholinesterase [1] were 303 nM and 313 nM, respectively. Further, the results for the Ki on Cholinesterase and at Acetylcholinesterase [1] were 208 nM and 327 nM, respectively.

On Cholinesterase, `Cc1ccc(S(=O)(=O)SCc2ccc(C(C)C)cc2)cc1` displayed an IC50 of 84.5 nM and a Ki of 37.9 nM. Besides, the Ratio IC50 at Acetylcholinesterase [2] turned out to be 5. Moreover, on Acetylcholinesterase [1], the midpoint of inhibition, the IC50, lay at 11.9 nM and the Ki worked out at 25.6 nM.

Regarding `Cc1ccc(S(=O)(=O)SCc2ccc(OC(F)(F)F)cc2)cc1`, on Cholinesterase, it took 53.3 nM to reach half-maximal inhibition (IC50) and the inhibitory constant (Ki) stood at 17.5 nM. At Acetylcholinesterase [1], this molecule yielded an IC50 of 129 nM and a Ki of 198 nM.

As to `COc1ccc(CSS(=O)(=O)c2ccc(C)cc2)cc1`, the values for the IC50 at Cholinesterase and at Acetylcholinesterase [1] were 202 nM and 488 nM, respectively. For the same molecule, the inhibitory constant (Ki) at Cholinesterase is 251 nM; at Acetylcholinesterase [1], 219 nM.

On Cholinesterase, `Cc1ccc(S(=O)(=O)SCc2ccc([N+](=O)[O-])cc2)cc1` registered an IC50 of 214 nM and a Ki of 303 nM. In addition, on Acetylcholinesterase [1], the IC50 turned out to be 212 nM and the Ki turned out to be 251 nM.

Take `Cc1ccc(S(=O)(=O)SCc2ccccc2)cc1`: the IC50 is 318 nM against Cholinesterase and 517 nM on Acetylcholinesterase [1]. In addition, the Ki on Cholinesterase is 218 nM; on Acetylcholinesterase [1], 390 nM.

Consider `Cc1ccc(S(=O)(=O)SCc2ccc(Cl)cc2)cc1`, for which, on Cholinesterase, the IC50 turned out to be 315 nM and the Ki is 199 nM. On Acetylcholinesterase [1], this molecule had a 50% inhibitory concentration (IC50) of 478 nM and a Ki of 714 nM.
